Results on seven compounds are retold here after patent publication US20240101664A1, “TREATMENT OF PERITONEAL, PLEURAL, AND PERICARDIUM ADHESIONS” (UTI LIMITED PARTNERSHIP, priority 2020, published 2024).

The test system of experiment [1] is peritoneal cavity macrophages. Description: Aggregometry of isolated peritoneal macrophages. The class given is cell-based, mouse. Conditions: 37° C., 400 rpm. On the procedure: Macrophages were isolated by peritoneal lavage as described above with the use of 2 mM EDTA containing HBSS instead of PBS. Macrophages were centrifuged at 300 g for 5 min in a 50-ml polystyrene tube. The pellet (with approximately 100 μl of fluid remaining with 3×10^6 cells) was diluted in HBSS containing 2 mM Ca^2+ to a final volume of 400 μl. It was then transferred to a aggregometry cuvette, which was warmed to 37° C. and continuously stirred (400 rpm). Light transmission was recorded on a 700 Whole Blood/Optical Lumi-Aggregometer (Chrono-log) and was expressed in arbitrary units with buffer representing 100% transmission and washed macrophage suspension 0% transmission, respectively. Agonists and calcium were added to reach a Ca^2+ concentration of 4 mM total or 2 mM free calcium in a buffer containing 2 mM EDTA. The preparation of platelet aggregometry was performed as previously described (53). Washed platelets (50 μl with 5×10^5 platelets per microliter) were diluted into 110 μl of Tyrode-HEPES buffer containing 2 mM Ca^2+ and 100 μg/ml human fibrinogen. Agonists (ATP, thrombospondin) were added at the indicated concentrations to the continuously stirred platelet suspension. Murine neutrophils were isolated from the bone marrow of wild-type C57Bl/6, mice as previously described (46). Briefly, bone marrow was collected from the femurs and tibias of euthanized mice, and neutrophils were isolated using a discontinuous Percoll gradient consisting of a Percoll solution (9 ml of Percoll and 1 ml 10× of HBSS) diluted to 72%, 64%, and 52% in 1×HBSS. Following centrifugation, the neutrophil band was removed and washed in HBSS. Cell pellets were resuspended in HBSS containing either 2 mM Ca2^+ or EDTA. Aggregometry was performed as described above.

In experiment [2] the test system is Gata6+ cavity macrophages. Description: Open-pouch intravital microscopy: cavity macrophage recruitment/aggregation at transmesothelial laser injury. In kind it is in vivo, mouse. Conditions: for number of macrophages attaching/aggregating at the injury (normalized macrophage count): 30 min post transmesothelial laser injury, intraperitoneal treatment 20 min before. On the procedure:
The following neutralizing antibodies (versus isotype controls) and reagents were intraperitoneally tested for their effect on macrophage recruitment: anti-mouse CD18 (100 μg per mouse, GAME-46, BD Pharmingen)+anti-mouse CD29 (100 μg per mouse, HM β31-1, BD Pharmingen) versus isotype rat IgG1, κ (100 μg per mouse, BioXcell)+hamster IgG (100 μg per mouse, eBioscience); anti-mouse CD162 (100 μg per mouse, 4RA10, BD Pharmingen) versus isotype rat IgG1 (100 μg per mouse, eBioscience); anti-human CD9 (10 μg per mouse, ALB 6, Santa Cruz) versus isotype mouse IgG1 (BD Biosciences). Heparin (Sandoz) was diluted in sterile saline to reach final dose of 100-1000 U per mouse. Argatroban (Sigma-Aldrich) was dissolved in DMSO at 20 mg/ml and diluted with saline to reach a final concentration of 300 μg per mouse. Hirudin (Multiplate Hirudin Blood Tube, Roche) was dissolved in saline and injected intraperitoneally at a dose of 1 tube per mouse. Polyinosinic acid (poly(I)) and polycytidylic acid (poly(C)) were purchased as potassium salt (Sigma-Aldrich) and dissolved in double-distilled water according to manufacturer's instructions to 5 mg/ml and 20 mg/ml, respectively. Immediately before experiments, the poly(C) stock solution was diluted with double-distilled water to a final concentration of 5 mg/ml. Both poly(I) and poly(C) were then diluted with saline to reach a final dose of 250 μg per mouse. A total of […] Anti-mouse Marco antibody (ED31, Biorad MCA1849) versus rat IgG1 Isotype control (eBRG1, eBioscience 16-4301-85) was injected intraperitoneally in a total volume of 140 μl PBS per mouse. A volume of 100 μl anti-mouse thrombocyte depletion serum (Cedarlane, CLAD31440) versus normal rabbit serum (Cedarlane, CLSD403) was injected intra venously 24 hours before imaging.
Mice used for IVM were 8-10 weeks old weighted an average of 20 g. Mice in each experiment were of the same sex. If not specified otherwise, mice were generally treated pharmacologically or with neutralizing antibodies 20 min before imaging. Mice were anesthetized with a mixture of ketamine hydrochloride (200 mg/kg, Rogar/SBT) and xylazine hydrochloride (10 mg/kg, MTC Pharmaceuticals). After anesthesia, the tail vein was cannulated for administration of additional anesthetic, antibodies, or other reagents in certain experiments.
The pouch model IVM (FIG. 1) was prepared with the mouse in supine position. Thermal support was given with a heated stage to maintain 37° C. body temperature. The fur and skin above the ventral abdominal wall were aseptically cleaned with 70% ethanol and then removed. Care was taken not to open the peritoneal cavity. If the peritoneal cavity was accidentally opened, the mouse was immediately euthanized. Staining antibody or dye was intraperitoneally injected with a 28G needle in midline about 10 mm above the symphysis. After withdrawing the needle, a suture was placed to seal the hole caused by the injection. This suture was then used to immobilize a part of the peritoneum onto the coverslip. For this, the mouse was placed in a semi-prone position. Placing a cotton tip with slight top to bottom pressure helped to further increase imaging stability yet preserved a connection between the imaging pouch and peritoneal cavity so that peritoneal fluid movement was preserved. The closed pouch was prepared by applying more pressure on the cotton tip which allowed us to separate the pouch from the peritoneal cavity in terms of fluid movement. After IVM, all mice were immediately euthanized.
Images were exported as uncompressed .tif files and analyzed using ImageJ (55). Tracking was generally performed in an automated fashion using the TrackMate plugin (56). The cell shown in FIG. 1J was tracked manually. Cell counts and injury size was measured manually in ImageJ. Three-dimensional visualizations and volume quantifications were performed in Imaris software. […]

Experiment [3] deals with macrophage disappearance reaction. Conditions: intraperitoneal administration; hypersensitivity reaction or Escherichia coli; cited from earlier work.
Experiment [4] relates to cells isolated from abdominal cavity (peritoneal fluid sample). Description: Aggregometry of human peritoneal fluid cells. In kind it is cell-based. Conditions: ATPgs 100 uM, CaCl 2 mM, Poly(I)/Poly(C) 2 mg/ml; phase contrast. Here is the method:
Cells were isolated from abdominal cavity by laparotomy or laparascopy, lavaged with 200 ml saline and stored on ice. The cell samples were transferred through 70 um filters into 50 ml falcon tubes and spun at 300 g for 5 min at 4 degree. The pellet was resuspended in HBSS without Ca and without Mg. For aggregometry cells were exposed to: EDTA final concentration 2 mM; ATPgs final concentration 100 uM; CaCl final concentration 2 mM; and Poly(I)/Poly(C) final concentration 2 mg/ml. The final volume of 100 uL was attained with HBSS. Cells from one patient were exposed to three different conditions: EDTA alone (negative control); ATP/Poly(C); ATP/Poly(I). Image with phase contrast was captured (FIG. 14).

A further experiment relates to peritoneal adhesions. Briefly: Peritoneal-button injury model of post-surgical peritoneal adhesions. The class given is in vivo, mouse. Here is the method: (§1) For surgical procedures, mice were 8-12 weeks old with a body weight >20 g. Mice in each experiment were of the same sex. Mice were treated before surgery with poly(I), poly(C), liposomes, or diphtheria toxin as described above. Anesthesia was induced and maintained with isoflurane. Eye lubricant was topically applied and buprenorphine (0.1 mg/kg) was subcutaneously administered.
For the peritoneal button injuries, skin was incised in midline. The peritoneal cavity was accessed through midline laparotomy. Standardized lesions were induced as previously described (47). In brief, a small portion of the peritoneum was grasped and ligated at its base using 4-0 Prolene suture (Ethicon), creating a standardized peritoneal button. This was repeated for a total of four buttons, one in each quadrant. Finally, peritoneum and skin were sutured with 6-0 Prolene (Ethicon) running suture.
Prior to sacrifice, mice were anesthetized (10 mg/kg xylazine hydrochloride and 200 mg/kg ketamine hydrochloride). Laparotomies were performed in an inverted U-shape. Adhesion were scored based on their tensile strength and vascularization (Table 2) as previously described (51). The animal was subsequently euthanized and perfused with 2 mM EDTA and 4% PFA containing PBS. Peritoneal buttons/adhesions were excised and post-fixated in 4% PFA containing PBS for 2-4 hours. Tissue staining and clearing was performed as previously described (52). […] Then the biopsies were incubated with fluorescently conjugated monoclonal antibodies for 1-4 days at 4° C. on a rotation device. […] Signal was detected using external, non-descanned hybrid detectors. Second harmonic generation by collagen was recorded by tuning the detector to excitation wavelength divided by two ±20 nm. […]
Mouse peritoneal lavage was performed in anesthetized animals by injection and aspiration of three times 5 ml of sterile ice-cold PBS containing 2 mM EDTA into the peritoneal cavity and subsequent retrieval. […] Samples were run using BD FACS Canto flow cytometer and analyzed using FlowJo software (Tree Star). […]

Experiment [5] concerns focal thermal lesions of liver. Description: Focal thermal hepatic injury healing. Conditions: 7 d after injury. In kind it is in vivo, mouse. Here is the method: Intravital liver imaging was performed as previously described (45). Exposed tissues were visualized with a Leica SP8 DIVE inverted microscope equipped with 4 Tune, a tunable in vivo detection system and a multiphoton light path. All images shown here were acquired using a HC FLUOTAR L 25×/0.95 W objective with water as immersion medium and 2× digital zoom. Fluorescent moieties were excited with a tunable InSight ×3 ultrafast laser (Spectra-Physics) at 800-1000 nm. Signal was detected using external, extremely sensitive non-descanned hybrid detectors. Second harmonic generation by collagen was recorded by tuning the detector to excitation wavelength divided by two ±20 nm. Leica LAS X software was used to drive the microscope.
as §1
Focal thermal injury in the liver was performed as previously described (49). In brief, a mini-laparotomy was made just below the xyphoid to expose the liver. Three focal injuries were induced on the surface of the liver using the tip of a heated 30G needle mounted on an electrocautery device. […]

In experiment [6] the test system is focal thermal injury of the parietal peritoneum. Description: Peritoneal focal thermal injury healing. Conditions: 3 days after injury; wound area and mesothelial coverage; poly(C) control. The class given is in vivo, mouse. On the procedure: Abdominal-wall-flap IVM was used to visualize the mesothelium and epigastric blood vessels (FIG. 2A, FIG. 3, F-I). Mice were placed in supine position on heated stage to maintain 37° C. body temperature. The fur and skin above the ventral abdominal wall were removed and then aseptically cleaned with 70% ethanol. Staining antibodies (anti-mouse podoplanin and anti-mouse F4/80 as described above) were injected. After mice were incubated for 10 min on a heated stage, the peritoneum was incised with an inverted U-shaped incision ranging from directly below the xyphoid process to the inguinal ligament on both sides. This created a perfused flap of peritoneum and the rectus abdominis muscles. The flap was washed with 1 ml of PBS and placed directly on the glass coverslip of the heated stage for imaging of abdominal wall or epigastric blood vessels.
as §1
The peritoneal focal thermal injury was adapted from the focal thermal liver injury that was previously described (46). The skin was incised in midline. […]

Where [7] appears, read: intravital imaging following poly(I) administration.

With `O=C(O)CN(CCN(CC(=O)O)CC(=O)O)CC(=O)O` [EDTA], in experiment [1], the “macrophage aggregation in vitro” value is listed as “inhibited”.

For the compound `Nc1ncnc2c1ncn2[C@@H]1O[C@H](COP(=O)(O)OP(=O)(O)OP(=O)(O)O)[C@@H](O)[C@H]1O` [adenosine triphosphate], the “macrophage aggregation in vitro” value in experiment [1] was “accelerate macrophage aggregation”.

For `CC1CNc2c(cccc2S(=O)(=O)N[C@@H](CCCNC(=N)N)C(=O)N2CC[C@@H](C)C[C@@H]2C(=O)O)C1` (some centres unmarked) [argatroban, Argatroban], in experiment [2], the “number of macrophages attaching/aggregating at the injury (normalized macrophage count)” value is listed as “did not replicate this effect”.

With Heparin, the “number of macrophages attaching/aggregating at the injury (normalized macrophage count)” value in experiment [2] is “significantly reduced the number of attaching cells”. Besides, the macrophage disappearance reaction result in experiment [3] is listed as “inhibit the macrophage disappearance reaction”.

On to Hirudin, for which the “number of macrophages attaching/aggregating at the injury (normalized macrophage count)” value in experiment [2] is “did not replicate this effect”.

As to Polycytidylic acid [Poly(C)], the “aggregates of human peritoneal fluid cells” value in experiment [4] was “large aggregate observed”.

Take Polyinosinic acid [poly(I)]: the “aggregates of human peritoneal fluid cells” value in experiment [4] is reported as “no aggregates”. Further, the “reduction of cavity macrophage numbers in the peritoneal lavage after surgery” value in the experiment on peritoneal adhesions (3 hours post-surgery, flow cytometry) is listed as “only partially inhibited”. The “recruitment of cavity macrophage aggregates from the peritoneal fluid to the buttons” value in the experiment with peritoneal adhesions (within 3 hours post-surgery) is reported as “could be reduced”. Also, the “number and tenacity of peritoneal adhesions” value in the experiment with peritoneal adhesions (within 7 days post-surgery) is recorded as “significantly reduced”. The “number of macrophages attaching/aggregating at the injury (normalized macrophage count)” value in experiment [2] is reported as “significantly decreased macrophage aggregation”. Besides, in experiment [2] (setting [7]), the “initial adhesion to the wound” value is on record as “left relatively intact” and the “macrophage-macrophage aggregate formation over time” value is on record as “significant decrease”. Besides, the “macrophage aggregation in vitro” value in experiment [1] is recorded as “prevent macrophage aggregation in vitro”. Besides, the “healing of focal thermal lesions of liver” value in experiment [5] is given as “similarly affected”. For the same compound, the “healing of focal thermal injury of the parietal peritoneum” value in experiment [6] was “prolonged healing”.
